Key:
Septoria tritici = assay: Test G: wheat leaf blotch, preventive spray on wheat seedlings, visual disease rating; details: wheat leaf blotch, 100 = 100% disease control; for Test G disease control rating: sprayed the day before inoculation, 0 = no disease control relative to controls
Description: General protocol for preparing test suspensions for Tests A-J: the test compounds were first dissolved in acetone in an amount equal to 3% of the final volume and then suspended at the desired concentration (in ppm) in acetone and purified water (50/50 mix by volume) containing 250 ppm of the surfactant Trem® 014 (polyhydric alcohol esters). The resulting test suspensions were then used in Tests A-J. Spraying a 200 ppm test suspension to the point of run-off on the test plants was the equivalent of a rate of 500 g/ha. Unless otherwise indicated, the rating values indicate a 200 ppm test suspension was used. (An asterisk “*” next to the rating value indicates a 40 ppm test suspension was used.)
The test suspension was sprayed to the point of run-off on wheat seedlings. The following day the seedlings were inoculated with a spore suspension of Septoria tritici (the causal agent of wheat leaf blotch) and incubated in saturated atmosphere at 24° C. for 48 h. and then the seedlings were moved to a growth chamber at 20° C. for 19 additional days, after which time visual disease ratings were made.

Alternaria solani = assay: Test C: tomato early blight, preventive spray on tomato seedlings, visual disease rating; details: tomato early blight, 100 = 100% disease control; for Test C disease control rating: 0 = no disease control relative to controls
[1] = test system: Puccinia recondita f. sp. tritici; assay: Test I: wheat leaf rust, preventive spray on wheat seedlings, visual disease rating; details: wheat leaf rust, 100 = 100% disease control; for Test I disease control rating: sprayed the day before inoculation, 0 = no disease control relative to controls
[2] = test system: Erysiphe graminis f sp. tritici; assay: Test J: wheat powdery mildew, preventive spray on wheat seedlings, visual disease rating; details: wheat powdery mildew, 100 = 100% disease control; for Test J disease control rating: sprayed the day before inoculation, 0 = no disease control relative to controls
Botrytis cinerea = assay: Test B: tomato Botrytis, preventive spray on tomato seedlings, visual disease rating; details: tomato Botrytis, 100 = 100% disease control; for Test B disease control rating: 0 = no disease control relative to controls
Septoria nodorum = assay: Test F: Septoria glume blotch, preventive spray on wheat seedlings, visual disease rating; details: 100 = 100% disease control; for Test F disease control rating: 0 = no disease control relative to controls
[3] = test system: Puccinia recondita f. sp. tritici; assay: Test H: wheat leaf rust, curative spray on inoculated wheat seedlings, visual disease rating; details: wheat leaf rust, 100 = 100% disease control; for Test H disease control rating: sprayed after inoculation, 0 = no disease control relative to controls
[4] = 0 = no control relative to controls
[5] = preventive, 0 = no control relative to controls
[6] = Septoria glume blotch, 0 = no control relative to controls
[7] = curative, 0 = no control relative to controls
[8] = preventive spray, 0 = no control
[9] = Septoria glume blotch on wheat, preventive spray, 0 = no control

Row | Compound | Test G rating (% disease control) (Septoria tritici; [4]) [%] | Test C rating (% disease control) (Alternaria solani; [4]) [%] | Test I rating (% disease control) [1, 5] [%] | Test J rating (% disease control) [2, 4] [%] | Test B rating (% disease control) (Botrytis cinerea; [4]) [%] | Test F rating (% disease control) (Septoria nodorum; [6]) [%] | Test H rating (% disease control) [3, 7] [%] | further results
1 | Cc1nn(C)c(Nc2ncc(F)cc2F)c1-c1c(F)cccc1C(F)(F)F [compound 264] | 92 | 98 | 99 | 98 | 100 | 0 | 0 | 
2 | Cc1nn(C)c(Oc2ccc(Br)c(C#N)c2)c1-c1c(F)cc(F)cc1F [compound 225] | 99 | 0 | 79 | 98 | 65 | 0 | 0 | 
3 | COc1cc(F)c(Nc2c(-c3ccc(Cl)cc3Cl)c(C)nn2C)c(F)c1 [compound 62] |  |  |  |  |  |  |  | Test G rating (% disease control) (Septoria tritici; [8]): 98%; Test C rating (% disease control) (Alternaria solani; [8]): 98%; Test I rating (% disease control) [1, 8]: 99%; Test J rating (% disease control) [2, 8]: 99%; Test B rating (% disease control) (Botrytis cinerea; [8]): 99%; Test F rating (% disease control) (Septoria nodorum; [9]): 84%; Test H rating (% disease control) ([3]; curative spray, 0 = no control): 98%
4 | COc1ccc(F)c(Nc2c(-c3ccc(F)cc3F)c(C)nn2C)c1 [compound 244] | 91 | 0 | 0 | 96 | 82 | 0 | 0 | 
5 | COc1cc(F)c(Nc2c(-c3c(F)cccc3C(F)(F)F)c(C)nn2C)c(F)c1 [compound 263] | 100 | 98 | 98 | 100 | 100 | 0 | 0 | 
6 | COc1cc(F)c(-c2c(C)nn(C)c2Nc2ccc(F)c(F)c2)c(F)c1 [compound 48] |  |  |  |  |  |  |  | Test G rating (% disease control) (Septoria tritici; [8]): 99%; Test C rating (% disease control) (Alternaria solani; [8]): 78%; Test I rating (% disease control) [1, 8]: 98%; Test J rating (% disease control) [2, 8]: 98%; Test B rating (% disease control) (Botrytis cinerea; [8]): 100%; Test F rating (% disease control) (Septoria nodorum; [9]): 0%; Test H rating (% disease control) ([3]; curative spray, 0 = no control): 0%
7 | Cc1nn(C)c(Nc2ccc([N+](=O)[O-])cc2F)c1-c1ccc(F)cc1Cl [compound 344] |  |  |  |  |  |  |  | Test G disease control rating (Septoria tritici): 100%; Test C disease control rating (Alternaria solani): 40%; Test I disease control rating [1]: 100%; Test J disease control rating [2]: 100%; Test B disease control rating (Botrytis cinerea): 100%; Test F disease control rating (Septoria nodorum; Septoria glume blotch on wheat): 87%; Test H disease control rating [3]: 62%
8 | COc1cc(F)c(Nc2c(-c3ccc(Cl)cc3)c(C)nn2C)c(F)c1 [compound 29] |  |  |  |  |  |  |  | Test G rating (% disease control) (Septoria tritici; [8]): 98%; Test C rating (% disease control) (Alternaria solani; [8]): 0%; Test I rating (% disease control) [1, 8]: 46%; Test J rating (% disease control) [2, 8]: 0%; Test B rating (% disease control) (Botrytis cinerea; [8]): 94%; Test F rating (% disease control) (Septoria nodorum; [9]): 0%; Test H rating (% disease control) ([3]; curative spray, 0 = no control): 0%
9 | COc1ccc(-c2c(C)nn(C)c2Oc2ccc(C#N)cc2Cl)c(Br)c1 [compound 318] |  |  |  |  |  |  |  | Test G disease control rating (Septoria tritici): 100%; Test C disease control rating (Alternaria solani): 0%; Test I disease control rating [1]: 97%; Test J disease control rating [2]: 89%; Test B disease control rating (Botrytis cinerea): 99%; Test F disease control rating (Septoria nodorum; Septoria glume blotch on wheat): 0%; Test H disease control rating [3]: 0%
10 | Cc1nn(C)c(Nc2ccc(F)cc2F)c1-c1ccc(F)cc1F [compound 230] | 100 | 99 | 97 | 100 | 99 | 0 | 0 | 
11 | Cc1nn(C)c(Oc2ccc(C#N)cc2Cl)c1-c1ccc(Cl)cc1Cl [compound 362] |  |  |  |  |  |  |  | Test G disease control rating (Septoria tritici): 100%; Test C disease control rating (Alternaria solani): 0%; Test I disease control rating [1]: 96%; Test J disease control rating [2]: 96%; Test B disease control rating (Botrytis cinerea): 100%; Test F disease control rating (Septoria nodorum; Septoria glume blotch on wheat): 0%; Test H disease control rating [3]: 0%
12 | COc1cc(F)c(-c2c(C)nn(C)c2Oc2c(F)cc(C#N)cc2F)c(F)c1 [compound 140] |  |  |  |  |  |  |  | Test G rating (% disease control) (Septoria tritici; [8]): 99%; Test C rating (% disease control) (Alternaria solani; [8]): 94%; Test I rating (% disease control) [1, 8]: 96%; Test J rating (% disease control) [2, 8]: 97%; Test B rating (% disease control) (Botrytis cinerea; [8]): 99%; Test F rating (% disease control) (Septoria nodorum; [9]): 87%; Test H rating (% disease control) ([3]; curative spray, 0 = no control): 0%
13 | Cc1nn(C)c(Nc2c(F)ccc(F)c2F)c1-c1ccc(F)cc1Cl [compound 171] | 97 | 97 | 99 | 100 | 100 | 0 | 68 | 
14 | Cc1nn(C)c(Nc2c(F)cc(C#N)cc2F)c1-c1c(F)cccc1F [compound 301] | 100 | 87 | 98 | 99 | 99 | 87 | 0 | 
15 | Cc1nn(C)c(Oc2c(F)cc(C#N)cc2F)c1-c1cc(F)ccc1F [compound 329] |  |  |  |  |  |  |  | Test G disease control rating (Septoria tritici): 100%; Test C disease control rating (Alternaria solani): 99%; Test I disease control rating [1]: 100%; Test J disease control rating [2]: 100%; Test B disease control rating (Botrytis cinerea): 100%; Test F disease control rating (Septoria nodorum; Septoria glume blotch on wheat): 69%; Test H disease control rating [3]: 0%
16 | Cc1nn(C)c(Nc2c(F)cccc2F)c1-c1ccc(Cl)cc1 [compound 33] |  |  |  |  |  |  |  | Test G rating (% disease control) (Septoria tritici; [8]): 95%; Test C rating (% disease control) (Alternaria solani; [8]): 0%; Test I rating (% disease control) [1, 8]: 18%; Test J rating (% disease control) [2, 8]: 0%; Test B rating (% disease control) (Botrytis cinerea; [8]): 0%; Test F rating (% disease control) (Septoria nodorum; [9]): 0%; Test H rating (% disease control) ([3]; curative spray, 0 = no control): 0%
17 | COc1cc(F)c(-c2c(C)nn(C)c2Oc2ccc(C)c(OC)c2)c(F)c1 [compound 249] | 99 | 0 | 96 | 100 | 40 | 0 | 0 | 
18 | Cc1nn(C)c(Nc2c(Cl)cc(F)cc2Cl)c1-c1c(Cl)cccc1Cl [compound 341] |  |  |  |  |  |  |  | Test G disease control rating (Septoria tritici): 99%; Test C disease control rating (Alternaria solani): 0%; Test I disease control rating [1]: 99%; Test J disease control rating [2]: 93%; Test B disease control rating (Botrytis cinerea): 99%; Test F disease control rating (Septoria nodorum; Septoria glume blotch on wheat): 0%; Test H disease control rating [3]: 0%
19 | Cc1nn(C)c(Nc2ncc(F)cc2F)c1-c1ccccc1C(F)(F)F [compound 280] | 96 | 0 | 18 | 87 | 99 | 0 | 8 | 
20 | Cc1nn(C)c(Nc2ccc(F)c(C#N)c2)c1-c1ccc(F)cc1Cl [compound 234] | 99 | 0 | 92 | 84 | 99 | 0 | 0 | 
21 | Cc1nn(C)c(Nc2ncc(Cl)cc2Cl)c1-c1c(F)cc(F)cc1F [compound 101] |  |  |  |  |  |  |  | Test G rating (% disease control) (Septoria tritici; [8]): 100%; Test C rating (% disease control) (Alternaria solani; [8]): 99%; Test I rating (% disease control) [1, 8]: 99%; Test J rating (% disease control) [2, 8]: 100%; Test B rating (% disease control) (Botrytis cinerea; [8]): 100%; Test F rating (% disease control) (Septoria nodorum; [9]): 100%; Test H rating (% disease control) ([3]; curative spray, 0 = no control): 99%
22 | COc1ccc(Nc2c(-c3ccc(F)cc3F)c(C)nn2C)c(F)c1 [compound 228] | 99 | 99 | 80 | 99 | 99 | 0 | 0 | 

Source: patent publication US10448639B2, “Fungicidal pyrazoles” (FMC CORPORATION, priority 2009, dated 2019)
